Test system: Nannochloropsis gaditana
Assay: Nile Red staining of oil accumulation in Nannochloropsis gaditana incubated with inhibitors of sterol metabolism
Type: cell-based
Settings: ESAW 1N1P and ESAW 10N10P media; time course at least 7 days; FIGS. 5 and 6
Procedure: Experiments were performed in two different conditions of Nannochloropsis gaditana: cells were either cultured in ESAW containing 47 mg·L^−1 NaNO3 and 3 mg·L^−1 NaH2PO4 (medium 1N1P), or 470 mg/L NaNO3 and 30 mg·L^−1NaH2PO4) (medium 10N10P). Cells in an exponential growth phase were collected via centrifugation at 3500 rpm for 10 minutes. The supernatant was discarded and the cells were resuspended in the same volume of ESAW medium (either 1N1P or 10N10P). The cultures were centrifuged again at 3500 rpm, for 10 minutes, and the supernatant was discarded. The pellet was resuspended in ESAW (either 1N1P or 10N10P) to obtain a concentration of 2×10^6 cells/mL. […]
Each day, an aliquot was taken from each flask in order to perform a Nile Red stain and cell counts. […] In order to detect any background noise, fluorescence was measured at excitation and emission of 530 nm and 580 nm, respectively. […] After 20 minutes of incubation, Nile Red fluorescence was measured at excitation and emission of 530 nm and 580 nm, respectively.
Nile Red Fluorescence was normalized by calculating the relative fluorescence units per million cells. Results were expressed as a percentage of Nile Red fluorescence of Nannochloropsis gaditana cultured in complete medium (either ESAW (10N10P) or ESAW (1N1P)).

## C#C[C@]1(O)CC[C@H]2[C@@H]3CCc4cc(O)ccc4[C@H]3CC[C@@]21C [Ethinylestradiol]
  accumulation of oil (Nile Red fluorescence per million cells): trigger the accumulation of oil

## CN(Cc1ccc(C(C)(C)C)cc1)Cc1cccc2ccccc12 [Butenafine]
  accumulation of oil (Nile Red fluorescence per million cells): trigger the accumulation of oil

Source: patent US10844411B2, “Inhibitors of sterol metabolism for their use to accumulate triglycerides in microalgae, and methods thereof” (Commissariat A L'energie Atomique Et Aux Energies …, priority 2014, dated 2020)
